Results reported in patent US8802597B2, “Herbicidal pyrimidines” (E I du Pont de Nemours and Company, priority 2003, dated 2014).
Like-named read-outs stand apart in the source and are kept apart here.

Columns and labels:
Type in all cases: in vivo
[1] = system: umbrella sedge (Cyperus difformis); test: Test C flooded paddy test; conditions: Flood, scale 0 to 100
Method: (§1) At the same time, plants selected from these crop and weed species and also winter barley (Hordeum vulgare), blackgrass (Alopecurus myosuroides), canarygrass (Phalaris minor), chickweed (Stellaria media), downy brome (Bromus tectorum), green foxtail (Setaria viridis), Italian ryegrass (Lolium multiflorum), wheat (Triticum aestivum), wild oat (Avena fatua) and windgrass (Apera spica-venti) were treated with postemergence applications of some of the test chemicals formulated in the same manner. Plants ranged in height from 2 to 18 cm (1- to 4-leaf stage) for postemergence treatments. Plant species in the flooded paddy test consisted of rice (Oryza sativa), umbrella sedge (Cyperus difformis), duck salad (Heteranthera limosa) and barnyardgrass (Echinochloa crus-galli) grown to the 2-leaf stage for testing. Treated plants and controls were maintained in a greenhouse for 12 to 14 days, after which time all species were compared to controls and visually evaluated. Plant response ratings, summarized in Table C, are based on a scale of 0 to 100 where 0 is no effect and 100 is complete control. A dash (-) response means no test result.

[2] = system: duck salad (Heteranthera limosa); test: Test C flooded paddy test; conditions: Flood, scale 0 to 100
Method: as §1

rice (Oryza sativa) = test: Test C flooded paddy test; conditions: Flood, scale 0 to 100
Method: as §1

[3] = system: barnyardgrass (Echinochloa crus-galli); test: Test C flooded paddy test; conditions: Flood
Method: as §1

[4] = system: water seeded rice seedlings (Oryza sativa cv. ‘Japonica-M202’); test: Test E flooded paddy water application; conditions: Flood, 21 days, scale 0 to 100 (0 no effect, 100 complete control)
Outline: (§2)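 Weeds sown in sterilized Tama silt loam (2.6% organic matter), greenhouse 29.5/26.7° C, 16-h photoperiod; at 2.0–2.5-leaf stage pots flooded to 3 cm and compound added to paddy water. Visual rating vs untreated controls after 21 days, 0 (no effect) to 100 (complete control).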

[5] = system: ducksalad (Heteranthera limosa); test: Test E flooded paddy water application; conditions: Flood, 21 days, scale 0 to 100 (0 no effect, 100 complete control)
Outline: as §2

[6] = system: transplanted rice seedlings (Oryza sativa cv. ‘Japonica-M202’); test: Test E flooded paddy water application; conditions: Flood, 21 days, scale 0 to 100 (0 no effect, 100 complete control)
Outline: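 Greenhouse pots of Tama silt loam with weeds and rice at 2.0–2.5-leaf stage, flooded to 3 cm; compounds applied directly into paddy water, depth maintained. Visual rating versus untreated controls after 21 days, 0 (no effect) to 100 (complete control); 29.5/26.7 °C, 16-h photoperiod.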

[7] = system: purple redstem (Ammannia coccinea); test: Test E flooded paddy water application; conditions: Flood, 21 days, scale 0 to 100 (0 no effect, 100 complete control)
Outline: as §2

[8] = system: bermudagrass (Cynodon dactylon); test: Test C pre/postemergence; conditions: for Plant response rating, Bermudagrass / pest or weed control at 125 g/ha / pest or weed control at 250 g/ha: scale 0 to 100; for pest or weed control at 31 g/ha / pest or weed control at 62 g/ha / pest or weed control at 125 g/ha / pest or weed control at 250 g/ha: Cynodon dactylon; for pest or weed control at 31 g/ha: 31 g ai/ha
Outline: (§3)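 Percent control is a visual rating (0 none, 100 complete) taken against untreated plants after 12 to 14 days of greenhouse growth. Applications were made preemergence to seeded pots and postemergence to plants at the 1- to 4-leaf stage, in a non-phytotoxic surfactant-containing solvent.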

[9] = system: common ragweed (Ambrosia elatior); test: Test C pre/postemergence; conditions: for pest or weed control at 31 g/ha / pest or weed control at 62 g/ha / pest or weed control at 125 g/ha / pest or weed control at 250 g/ha: Ambrosia artemisiifolia; for pest or weed control at 31 g/ha: 31 g ai/ha
Outline: as §3

[10] = 500 g ai/ha, scale 0 to 100 (0 no effect, 100 complete control)
[11] = Postemergence, 62 g ai/ha, scale 0 to 100 (0 no effect, 100 complete control)
[12] = Postemergence, 125 g ai/ha, scale 0 to 100 (0 no effect, 100 complete control)

CCOC(=O)c1nc(-c2ccc(Cl)cc2)nc(N)c1Br [Compound 37]
Plant response rating, Sedge, Umbrella ([1]; 62 g ai/ha): 85 | Plant response rating, Sedge, Umbrella ([1]; 125 g ai/ha): 85 | Plant response rating, Sedge, Umbrella ([1]; 250 g ai/ha): 90 | Plant response rating, Sedge, Umbrella ([1]; 500 g ai/ha): 95 | Plant response rating, Ducksalad ([2]; 62 g ai/ha): 95 | Plant response rating, Ducksalad ([2]; 125 g ai/ha): 95 | Plant response rating, Ducksalad ([2]; 250 g ai/ha): 100 | Plant response rating, Ducksalad ([2]; 500 g ai/ha): 100 | Plant response rating, Rice (rice (Oryza sativa); 62 g ai/ha): 0 | Plant response rating, Rice (rice (Oryza sativa); 125 g ai/ha): 0 | Plant response rating, Rice (rice (Oryza sativa); 250 g ai/ha): 0 | Plant response rating, Rice (rice (Oryza sativa); 500 g ai/ha): 0 | Plant response rating, Barnyardgrass ([3]; 62 g ai/ha, scale 0 to 100): 0 | Plant response rating, Barnyardgrass ([3]; 125 g ai/ha, scale 0 to 100): 0 | Plant response rating, Barnyardgrass ([3]; 250 g ai/ha, scale 0 to 100): 0 | Plant response rating, Barnyardgrass [3, 10]: 0 | Rice, Water Seeded plant response rating ([4]; 32 g ai/ha): 0 | Rice, Water Seeded plant response rating ([4]; 64 g ai/ha): 0 | Rice, Water Seeded plant response rating ([4]; 125 g ai/ha): 0 | Rice, Water Seeded plant response rating ([4]; 250 g ai/ha): 0 | Plant response rating, Rice, Water Seeded ([4]; 16 g ai/ha): 0 | Ducksalad plant response rating ([5]; 32 g ai/ha): 100 | Ducksalad plant response rating ([5]; 64 g ai/ha): 100 | Ducksalad plant response rating ([5]; 125 g ai/ha): 100 | Ducksalad plant response rating ([5]; 250 g ai/ha): 100 | Plant response rating, Ducksalad ([5]; 16 g ai/ha): 80 | Rice, Transplanted plant response rating ([6]; 32 g ai/ha): 0 | Rice, Transplanted plant response rating ([6]; 64 g ai/ha): 0 | Rice, Transplanted plant response rating ([6]; 125 g ai/ha): 0 | Rice, Transplanted plant response rating ([6]; 250 g ai/ha): 0 | Plant response rating, Rice, Transplanted ([6]; 16 g ai/ha): 0 | Redstem plant response rating ([7]; 32 g ai/ha): 0 | Redstem plant response rating ([7]; 64 g ai/ha): 30 | Redstem plant response rating ([7]; 125 g ai/ha): 40 | Redstem plant response rating ([7]; 250 g ai/ha): 80 | Plant response rating, Redstem ([7]; 16 g ai/ha): 0 | Bermudagrass plant response rating [8, 11]: 0 | Bermudagrass plant response rating [8, 12]: 0 | Plant response rating, Bermudagrass ([8]; Postemergence, 250 g ai/ha): 0 | Plant response rating, Bermudagrass ([8]; Postemergence, 500 g ai/ha): 20 | Ragweed plant response rating [9, 11]: 0 | Ragweed plant response rating [9, 12]: 80 | Plant response rating, Ragweed ([9]; Postemergence, 250 g ai/ha, scale 0 to 100): 90 | Plant response rating, Ragweed ([9]; Postemergence, 500 g ai/ha, scale 0 to 100): 95

COC(=O)c1nc(C2CC2)nc(N)c1Cl [Compound 9, methyl 6-amino-5-chloro-2-cyclopropyl-4-pyrimidinecarboxylate]
Plant response rating, Sedge, Umbrella ([1]; 62 g ai/ha): 0 | Plant response rating, Sedge, Umbrella ([1]; 125 g ai/ha): 15 | Plant response rating, Sedge, Umbrella ([1]; 250 g ai/ha): 15 | Plant response rating, Sedge, Umbrella ([1]; 500 g ai/ha): 85 | Plant response rating, Ducksalad ([2]; 62 g ai/ha): 45 | Plant response rating, Ducksalad ([2]; 125 g ai/ha): 70 | Plant response rating, Ducksalad ([2]; 250 g ai/ha): 80 | Plant response rating, Ducksalad ([2]; 500 g ai/ha): 90 | Plant response rating, Rice (rice (Oryza sativa); 62 g ai/ha): 0 | Plant response rating, Rice (rice (Oryza sativa); 125 g ai/ha): 30 | Plant response rating, Rice (rice (Oryza sativa); 250 g ai/ha): 55 | Plant response rating, Rice (rice (Oryza sativa); 500 g ai/ha): 75 | Plant response rating, Barnyardgrass ([3]; 62 g ai/ha, scale 0 to 100): 0 | Plant response rating, Barnyardgrass ([3]; 125 g ai/ha, scale 0 to 100): 15 | Plant response rating, Barnyardgrass ([3]; 250 g ai/ha, scale 0 to 100): 55 | Plant response rating, Barnyardgrass [3, 10]: 85 | pest or weed control at 31 g/ha ([8]; post-emergence, Postemergence, read-out: Plant response rating (scale of 0 to 100), Bermudagrass): 60% | pest or weed control at 62 g/ha ([8]; post-emergence, Postemergence, 62 g ai/ha, scale 0 to 100 (0 no effect, 100 complete control), read-out: Bermudagrass plant response rating): 65% | pest or weed control at 125 g/ha ([8]; post-emergence, Postemergence, 125 g ai/ha, read-out: Plant response rating, Bermudagrass): 70% | pest or weed control at 250 g/ha ([8]; post-emergence, Postemergence, 250 g ai/ha, read-out: Plant response rating, Bermudagrass): 80% | pest or weed control at 31 g/ha ([8]; pre-emergence, Preemergence, scale 0 to 100, 0 no effect, 100 complete control, read-out: Plant response rating, Bermudagrass): 100% | pest or weed control at 62 g/ha ([8]; pre-emergence, Preemergence, 62 g ai/ha, scale 0 to 100, 0 no effect, 100 complete control, read-out: Plant response rating, Bermudagrass): 100% | pest or weed control at 125 g/ha ([8]; pre-emergence, Preemergence, 125 g ai/ha, read-out: Plant response rating, Bermudagrass): 100% | pest or weed control at 250 g/ha ([8]; pre-emergence, Preemergence, 250 g ai/ha, read-out: Plant response rating, Bermudagrass): 100% | pest or weed control at 31 g/ha ([9]; post-emergence, Postemergence, read-out: Plant response rating (scale of 0 to 100), Ragweed): 70% | pest or weed control at 62 g/ha ([9]; post-emergence, Postemergence, 62 g ai/ha, scale 0 to 100 (0 no effect, 100 complete control), read-out: Ragweed plant response rating): 80% | pest or weed control at 125 g/ha ([9]; post-emergence, Postemergence, 125 g ai/ha, scale 0 to 100 (0 no effect, 100 complete control), read-out: Ragweed plant response rating): 95% | pest or weed control at 250 g/ha ([9]; post-emergence, Postemergence, 250 g ai/ha, scale 0 to 100, read-out: Plant response rating, Ragweed): 100% | pest or weed control at 31 g/ha ([9]; pre-emergence, Preemergence, scale 0 to 100, 0 no effect, 100 complete control, read-out: Plant response rating, Ragweed): 100% | pest or weed control at 62 g/ha ([9]; pre-emergence, Preemergence, 62 g ai/ha, scale 0 to 100, 0 no effect, 100 complete control, read-out: Plant response rating, Ragweed): 100% | pest or weed control at 125 g/ha ([9]; pre-emergence, Preemergence, 125 g ai/ha, scale 0 to 100, read-out: Plant response rating, Ragweed): 100% | pest or weed control at 250 g/ha ([9]; pre-emergence, Preemergence, 250 g ai/ha, scale 0 to 100, read-out: Plant response rating, Ragweed): 100%
